Data set [1] deals with HaCaT cells. Put plainly: HaCaT cell viability assay for skin irritancy potential. Type of data set: cell-based. The protocol:
Irritancy potential of the individual surfactants as well as formulation chassis (placebo formulations) were evaluated using an in house in vitro test. The method utilizes HaCaT cell viability as a marker for irritation.
Briefly, HaCaT cells were seeded in 96-well plates (Nunc 96 well plate, Cat #165305) at density of 2×10^4 cells per well, and grown overnight before treatments. Test articles were diluted in water to make 10% stock solutions, which were serially diluted in DMEM to twice to the final treatment concentrations. Cells were treated in triplicates by adding 100 μl of serially diluted test articles to each well containing 100 μl fresh medium. After incubation at 37° C., 5% CO2 for 10 minutes in the presence of diluted placebos, cells were then washed with 200 μl of DPBS with Ca^++ and Mg^++ (Life Technologies #14040133) for 3 times. CellTiter-Blue reagent (Promega, G8081, 10× stock solution) was diluted to 1× working solution in cell culture medium and added to cells (100 μl/well). Cells were incubated at 37° C., 5% CO2 for 60 minutes and the cell viability was measured using fluorescent activity (Ex. 560 nm, Em. 590 nm). All treated samples were normalized to the untreated control. Cell viabilities were then used to assess skin irritation potential.
Cell viability studies were conducted to assess the skin irritation of the formulations using Neutrogena Ultra Gentle Daily Cleanser and PanOxyl 10 (Placebo) as the comparators. The results are shown in FIG. 2 for the 2.5% BPO formulations and FIG. 3 for the 10% BPO formulations. Sodium Lauryl […] (SLS) was used as the positive control. […] All 6 formulations outperformed Neutrogena Ultra Gentle with formulation #3(2.5%) being more than 3 fold milder than Neutrogena Ultra Gentle cleanser. The 2.5% prototypes were slightly milder than the 10% formulations. This is expected due to higher concentration of the surfactants in the 10% formulations.

Data set [2] can be described thus: BPO chemical stability in wash formulations and shelf life prediction. Type of data set: physicochemical. Particulars: increasing sorbitol concentrations in wash formulations. Here is the method:
BPO stability in the formulations of the present invention were assessed over time at 25° C./60% RH and 30° C./65% RH using environmentally controlled chambers. Specifically formulations containing 2.5% BPO or 10% BPO in glass vials were placed on stability, and monitored for BPO degradation.
Chemical stability of the BPO in surfactant based wash products is a challenge due to increased solubility of the BPO in these systems.

For data set [3] the following is noted: in water and propylene glycol, after 90 days of storage; cited from earlier work.
Where [4] appears, read: HaCaT cell viability, 10 minutes treatment, left = mildest, SLS positive control.

Where two headings read alike, the source gives them in different places.

The values that follow come from patent US20200253914A1, “NOVEL FORMULATIONS” (priority 2015, published 2020).

In the case of “sodium C14-16 Olefin sulfonate [Colonial AOS]”, the “rank order of screened surfactants for mildness, based on EC 50 values” (shortened to “rank order of screened surfactants”) in data set [1] (setting [4]) was “> Cola Lipid C”.

For “Sodium C14-C17 sec-alkyl sulfonate [Hostapur SAS 60]”, in data set [1] (setting [4]), the “rank order of screened surfactants” value is “SLS”.

On to `OC[C@@H](O)[C@@H](O)[C@H](O)[C@@H](O)CO` [sorbitol, D-Sorbitol], for which the “effect of humectant on BPO stability (benzoic acid generated)” value in data set [2] is on record as “improve BPO stability”.

Take “Sodium Laurylglucoside Hydroxypropylsufonate [Suganate 160 NC]”: the “rank order of screened surfactants” value in data set [1] is listed as “> Plantaren 2000 N UP”.

In the case of `CCCCCCCCCCO[C@@H]1O[C@H](CO)[C@@H](O)[C@H](O)[C@H]1O` [Plantaren 2000 N UP, decyl glucoside], the “rank order of screened surfactants” value in data set [1] (setting [4]) is “> Colonial AOS”.

Turning to “Cocamidopropyl PG-Dimonium Chloride Phosphate [Cola Lipid C]”, the “rank order of screened surfactants” value in data set [1] (setting [4]) is listed as “> SLS”.

`O=C(OOC(=O)c1ccccc1)c1ccccc1` [BPO, Benzoyl peroxide]: in data set [3], the “degradation of benzoyl peroxide in suspension (dispersed form)” value is “not degraded”.

“Sodium Hydroxyethylglycinate cocoglucoside crosspolymer and sodium bis-hydroxytethylglycinate lauryl glucoside crosspolymer [PolySuga Glycinate C]”: the “rank order of screened surfactants” value in data set [1] is listed as “> PolySuga Phos 1200P”.
